These results are taken from patent US9328093B2, “Selective inhibitors of ubiquitin specific protease 7, the pharmaceutical compositions thereof and their therapeutic applications” (HYBRIGENICS SA, priority 2010, dated 2016).

For assay [1], the system named is HCT116 colon cancer cells. In words: HCT116 cell viability and proliferation assay (MTS). In kind it is cell-based. The settings on record: Homo sapiens, HCT-116, 72 h, HCT116, 72 hours, read-out: Cell viability (MTS): HCT116 GI50 Day3. The procedure:
HCT116 colon cancer cells were obtained from ATCC (American Type Culture Collection), and maintained in Mc Coy's 5A medium containing 10% FBS, 3 mM glutamine and 1% penicillin/streptomycin. Cells were incubated at 37° C. in a humidified atmosphere containing 5% CO2.
Cell viability was assayed using the MTS technique in 96-well culture plates (CellTiter 96® Aqueous Non-Radioactive Cell Proliferation Assay, Promega) according to the manufacturer's instructions. MTS (3-(4,5-dimethyl-thiazol-2-yl)-5-(3-carboxy-methoxyphenyl)-2-(4-sulfophenyl)-2H-tetra-zolium) is a MTT-derived tetrazolium that is reduced in metabolically active cells into a soluble, cell-permeant formazan. The amount of formazan, detected by its absorbance at 492 nm is proportional to the number of living, metabolically active cells.
10^3 HCT116 cells were seeded per well. 24 hours later, the medium was changed and the cells treated in triplicate with the concentrations of each compound from 100 μM to 50 nM. The compounds were diluted in 100% DMSO, whose final concentration on cells was kept at 0.5%.
Cells were incubated with the compounds for 72 hours, and their viability then assayed by the addition of MTS for 2 hours. Absorbance at 492 nm was measured directly from the 96-well culture plates. Gl50 (Growth Inhibition 50) concentrations for each compound were calculated using a sigmoidal variable slope fit (Prism 4.0, Graphpad Softwares). Values represent mean of three independent experiments.

Another assay deals with T1, USP8 (Homo sapiens, UniProt P40818).
T1 construct: His (from pFastBac-HT vector) (N); made in house; host or cells: Sf9 or High Five insect cells, baculovirus
T1 sequence (P40818 1-1118): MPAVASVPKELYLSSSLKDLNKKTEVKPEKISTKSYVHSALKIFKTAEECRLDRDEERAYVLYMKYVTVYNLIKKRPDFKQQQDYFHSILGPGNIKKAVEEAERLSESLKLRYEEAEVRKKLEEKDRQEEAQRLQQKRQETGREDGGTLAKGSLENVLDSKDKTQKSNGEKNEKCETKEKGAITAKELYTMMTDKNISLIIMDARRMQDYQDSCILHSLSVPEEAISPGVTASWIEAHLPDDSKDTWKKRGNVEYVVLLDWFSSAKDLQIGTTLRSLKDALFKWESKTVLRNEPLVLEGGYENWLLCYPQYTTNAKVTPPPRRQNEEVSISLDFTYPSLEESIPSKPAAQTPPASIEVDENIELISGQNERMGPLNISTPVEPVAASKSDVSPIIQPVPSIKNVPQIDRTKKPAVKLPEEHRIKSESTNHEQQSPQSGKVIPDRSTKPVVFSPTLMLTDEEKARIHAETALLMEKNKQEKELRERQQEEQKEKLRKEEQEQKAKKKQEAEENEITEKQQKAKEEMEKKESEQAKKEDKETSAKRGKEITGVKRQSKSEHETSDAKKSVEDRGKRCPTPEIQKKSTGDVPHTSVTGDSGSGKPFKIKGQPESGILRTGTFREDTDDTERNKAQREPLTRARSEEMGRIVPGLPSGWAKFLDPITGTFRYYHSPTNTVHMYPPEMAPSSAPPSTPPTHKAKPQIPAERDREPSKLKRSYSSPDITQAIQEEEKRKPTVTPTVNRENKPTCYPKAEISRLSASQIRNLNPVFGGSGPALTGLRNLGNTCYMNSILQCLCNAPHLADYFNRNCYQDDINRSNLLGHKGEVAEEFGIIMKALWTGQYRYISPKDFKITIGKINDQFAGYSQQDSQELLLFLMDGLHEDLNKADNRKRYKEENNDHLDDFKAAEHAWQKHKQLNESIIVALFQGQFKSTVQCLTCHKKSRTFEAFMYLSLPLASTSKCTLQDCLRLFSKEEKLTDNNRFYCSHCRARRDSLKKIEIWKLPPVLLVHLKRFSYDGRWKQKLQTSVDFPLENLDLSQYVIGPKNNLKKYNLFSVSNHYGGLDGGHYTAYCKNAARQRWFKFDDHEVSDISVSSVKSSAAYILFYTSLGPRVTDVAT
In words: USP8 assay with GST-Ub52-Flag substrate (HTRF). In kind it is biochemical. The settings on record: USP8 400 pM. The procedure:
(§1) For compounds 26 to 38, the in-vitro assays on USP7 and USP8 were carried out according to the following procedure
(§2) The present examples 26 to 38 makes it possible to validate the use of GST-Ub52-Flag in an assay based on the time-resolved measurement of fluorescence emitted by […] in homogenous medium.
(§3) The assay is carried out on multiwell assay plates. The plates are analyzed on a PHERAstar fluorimeter (BMG) after an overnight incubation at 4° C. (excitation 337 nm, emission 620 and 665 nm).
(§4) The reagents used were as follows: • Solution of USP7 at 200 pM and USP8 at 400 pM in 50 mM Tris HCl pH 7.6, Bovine Serum Albumin 0.05%, DTT 5 mM. • Anti-Flag-K (CIS bio international), solution at 0.2 μM in 0.8 M KF, 0.1 Bovine Serum Albumin, Tris HCl 25 mM pH 7.6. • Anti-GST antibody-XL665 conjugate (CIS bio international), solution at 2.6 μM in 0.8 M KF, 0.1% Bovine Serum Albumin, Tris HCl 25 mM pH 7.6. • GST-Ub52-flag solution at 14.75 μM & MBP_Ub52 at 37.7 μM are prepared by dilutions from the stock solution described above in 50 mM Tris HCl pH 7.6, EDTA 0.5 mM, Bovine Serum Albumin 0.05%, DTT 5 mM.
(§5) The enzyme reaction is carried out by mixing GST-Ub52-flag solution with 5 μl of USP7 solution (200 pM final) or 5 μl of USP8 (400 pM final). This mixture is incubated for one hour at room temperature on a multiwell assay plate. A 10 μl mixture of 5 μl of anti-Flag-K solution (0.2 μM) plus 5 μl of anti-GST-XL665 antibody (2.6 μM) is added to each well of the multiwell assay plate. The plate is read after an overnight incubation at 4° C. on a PHERAstar fluorimeter (BMG).
(§6) The decrease in the signal correlates with the increase in enzyme activity i.e. the cleavage of GST-Ub52-Flag substrate. The format used is therefore entirely suitable for a method of assaying an enzyme of the deubiquitinating type such as ubiquitin specific protease, but also for determining a modulator of this enzyme activity.
(§7) The same procedures as mentioned above for assaying the activity of enzymes of the deubiquitinating type are carried out but the various reaction mixtures are incubated with identical enzyme concentration, in the presence or absence of a test compounds 26 to 38. Data (mean values+/− standard deviation) were analyzed as % of control (no compound) and plotted as percentage versus the Log of the compound concentration using GraphPad (Prism).
(TR-FRET usually uses a lanthanide donor and a delayed reading to cut background.)

A further assay concerns the target T2, USP7 (Homo sapiens, UniProt Q93009).
T2 construct: Full-length wild-type human USP7 and its catalytic mutant (cysteine 223 replaced by alanine, C223A) were produced as N-terminally His-tagged fusions; His (N); made in house; host or cells: Spodoptera frugiperda Sf9 (or High Five) insect cells, baculovirus pFastBac-HT-B
In words: USP7 assay with GST-Ub52-Flag substrate (HTRF). The settings on record: USP7 200 pM. Type of assay: biochemical. The procedure: as §1, §2, §3, §4, §5, §6, §7

Bounds are passed on as bounds.

In general, GI50 refers to the concentration that inhibits growth by half. On to `CCCN1CCN(CCCNC(=O)c2ccc3c(Cl)c4c(nc3c2)CCCC4)CC1` [Example 13, 9-Chloro-5,6,7,8-tetrahydro-acridine-3-carboxylic acid [3-(4-propyl-piperazin-1-yl)-propyl]-amide], for which, in assay [1], the GI50 stood at 5.9 µM.

`O=C(c1ccc2c(Cl)c3c(nc2c1)CCCC3)N1CCC(N2CCCCC2)CC1` [Example 16, [1,4′]Bipiperidinyl-1′-yl-(9-chloro-5,6,7,8-tetrahydro-acridin-3-yl)-methanone]: the GI50 in assay [1] turned out to be 13.5 µM.

For the compound `CCN(CC)CCCNC(=O)c1ccc2c(Cl)c3c(nc2c1)CCCC3` [Example 10, 9-Chloro-5,6,7,8-tetrahydro-acridine-3-carboxylic acid (3-diethylamino-propyl)-amide], the 50% growth inhibitory concentration (GI50) in assay [1] is 5 µM.

On to `CN1CCN(CCCNC(=O)c2ccc3c(Cl)c4c(nc3c2)CCCC4)CC1` [Example 15, 9-Chloro-5,6,7,8-tetrahydro-acridine-3-carboxylic acid [3-(4-methyl-piperazin-1-yl)-propyl]-amide], for which the GI50 in assay [1] worked out at 7.4 µM.

In the case of `Cc1cccc(CN2CCC(CNC(=O)c3ccc4c(Cl)c5c(nc4c3)CCCC5)CC2)c1` [Example 1, 9-Chloro-5,6,7,8-tetrahydro-acridine-3-carboxylic acid [1-(3-methyl-benzyl)-piperidin-4-ylmethyl]-amide], the GI50 in assay [1] was 2 µM.

For orientation: IC50 means the concentration that inhibits the measured activity by half. A higher IC50 goes with a need for much substance. Consider `CN1CCC(N2CCN(C(=O)c3ccc4c(Cl)c5c(nc4c3)CCCC5)CC2)CC1` [Example 30, (9-chloro-5.6,7,8-tetrahydroacridine-3-yl)(4-(1-methylpiperidin-4-yl)piperazin-1-yl)methanone], for which the IC50 at USP8 is above 200 µM; against USP7, 23 µM. Besides, in assay [1], the GI50 came out at 12.5 µM.

Turning to `CCN1CCC[C@@H]1CNC(=O)c1ccc2c(Cl)c3c(nc2c1)CCCC3` [Example 36, (R)-9-chloro-N-((1-ethylpyrrolidin-2-yl)methyl)-5,6,7,8-tetrahydroacridine-3-carboxamide], the half-maximal inhibitory concentration (IC50) was above 200 µM on USP8 and 44.4 µM against USP7. Besides, the GI50 in assay [1] worked out at 9.1 µM.

Regarding `CC1CCCC(C)N1CCCNC(=O)c1ccc2c(Cl)c3c(nc2c1)CCCC3` (centres unmarked) [Example 9, 9-Chloro-5,6,7,8-tetrahydro-acridine-3-carboxylic acid [3-(2,6-dimethyl-piperidin-1-yl)-propyl]-amide], in assay [1], the GI50 was 3.6 µM.

`CN(C)CC(C)(C)CNC(=O)c1ccc2c(Cl)c3c(nc2c1)CCCC3` [Example 38, 9-chloro-N-(3-(dimethylamino)-2,2-dimethylpropyl)-5,6,7,8-tetrahydroacridine-3-carboxamide]: the results for the IC50 against USP8 and against USP7 were above 200 µM and 49.2 µM, respectively. Also, the 50% growth inhibitory concentration (GI50) in assay [1] is 11 µM.

Turning to `O=C(NCC1CCN(CCc2ccccc2)CC1)c1ccc2c(Cl)c3c(nc2c1)CCCC3` [Example 34, 9-chloro-N-((1-phenethylpiperidin-4-yl)methyl)-5,6,7,8-tetrahydroacridine-3-carboxamide], the IC50 against USP8 is above 200 µM; against USP7, 24.5 µM. Moreover, the GI50 in assay [1] was found to be 2.8 µM.

With `O=C(NCC1CCN(Cc2ccccc2)CC1)c1ccc2c(Cl)c3c(nc2c1)CCCC3` [Example 32, N-((1-benzylpiperidin-4-yl)methyl)-9--chloro-5,6,7,8-tetrahydroacridine-3-carboxamide], the 50% inhibitory concentration (IC50) at USP8 was above 200 µM; against USP7, 17.6 µM. Moreover, in assay [1], the GI50 came out at 3.1 µM.

For the compound `CCCCN(CC)CCNC(=O)c1ccc2c(Cl)c3c(nc2c1)CCCC3` [Example 4, 9-Chloro-5,6,7,8-tetrahydro-acridine-3-carboxylic acid [2-(butyl-ethyl-amino)-ethyl]-amide], the GI50 in assay [1] was found to be 4 µM.

Turning to `CCN1CCCC1CNC(=O)c1ccc2c(Cl)c3c(nc2c1)CCCC3` (centres unmarked) [Example 2, 9-Chloro-5,6,7,8-tetrahydro-acridine-3-carboxylic acid (1-ethyl-pyrrolidin-2-ylmethyl)-amide], the 50% growth inhibitory concentration (GI50) in assay [1] is 5 µM.

On to `O=C(NCCCN1CCCC1)c1ccc2c(Cl)c3c(nc2c1)CCCC3` [Example 8, 9-Chloro-5,6,7,8-tetrahydro-acridine-3-carboxylic acid (3-pyrrolidin-1-yl-propyl)-amide], for which the GI50 in assay [1] stood at 5.9 µM.

For `O=C(c1ccc2c(Cl)c3c(nc2c1)CCCC3)N1CCCCCC1` [Example 12, Azepan-1-yl-(9-chloro-5,6,7,8-tetrahydro-acridin-3-yl)-methanone], the GI50 in assay [1] came out at 20 µM.

Take `CCN(CC)CCNC(=O)c1ccc2c(Cl)c3c(nc2c1)CCCC3` [Example 7, 9-Chloro-5,6,7,8-tetrahydro-acridine-3-carboxylic acid (2-diethylamino-ethyl)-amide]: in assay [1], the 50% growth inhibitory concentration (GI50) is 4.3 µM.

Regarding `CN(C)CCNC(=O)c1ccc2c(Cl)c3c(nc2c1)CCCC3` [Example 11, 9-Chloro-5,6,7,8-tetrahydro-acridine-3-carboxylic acid (2-dimethylamino-ethyl)-amide], the GI50 in assay [1] was 7.8 µM.

For `CCCN(CCC)CCNC(=O)c1ccc2c(Cl)c3c(nc2c1)CCCC3` [Example 3, 9-Chloro-5,6,7,8-tetrahydro-acridine-3-carboxylic acid (2-dipropylamino-ethyl)-amide], the GI50 in assay [1] was 3.5 µM.

With `CCCN(CCC)CCCNC(=O)c1ccc2c(Cl)c3c(nc2c1)CCCC3` [Example 6, 9-Chloro-5,6,7,8-tetrahydro-acridine-3-carboxylic acid (3-dipropylamino-propyl)-amide], the GI50 in assay [1] was 3.9 µM.
